Experimental data taken from patent US9718812B2, “Substituted thiazole or oxazole P2X7 receptor antagonists” (Axxam S.P.A., priority 2014, dated 2017).

What was measured:
[1] = biological target: P2X7 receptor (Homo sapiens (Human), UniProt Q99572); assay: YO-PRO-1 Uptake Assay (large pore form, Bz-ATP stimulated); format: cell-based; conditions: HEK-293 cells stably transfected with P2X7 receptor; Bz-ATP EC80 (30 μM); 5 μM YO-PRO-1
Text: YO-PRO®-1 is a fluorescent DNA-binding dye with a MW of 374 Da (Molecular Probes®, cat. Y3603). This method is based upon the presumed ability of YO-PRO®-1 to enter through the dilated or “large pore form” of P2X7 receptor and to bind to intracellular DNA whereupon it increases many fold its fluorescence intensity. The dye has an absorption spectrum compatible with excitation at 488 nm by argon laser sources and its emission wavelength is in the range of 515-575 nm. The aim of this assay was to validate the interaction of antagonists with P2X7 receptor using an alternative readout to Ca^2+-sensitive fluorescent dyes.
HEK-293 cells stably transfected with P2X7 receptor were seeded overnight in growth medium at 20,000 cells/well in 384-well plate. 24 hours later, the medium was removed, the cells were washed with Low Divalent Cation Assay Buffer (0.3 mM Ca2+ and 0 mM Mg2+) and then pre-loaded with 20 μL/w of 5 μM YO-PRO®-1 dye. […] fluorescence measurement immediately started. Then, 10 μL/w of test compounds and reference antagonist A438079 at 3×-concentration were injected with the […] and the kinetic response over a period of five minutes was monitored. A second injection of 10 μL/w of 3× Bz-ATP EC80 (30 μM) was performed with the […] and the signal of the emitted fluorescence was recorded for additional 60 minutes. All the experiment was carried out with a Low Divalent Cation Assay Buffer (0.3 mM Ca^2+ and 0 mM Mg^2+).
The effect of the test compounds was measured as percent inhibition vs the reference antagonist and IC50 values were calculated accordingly.

[2] = biological target: P2X7 receptor (hP2X7) (Homo sapiens (Human), UniProt Q99572); assay: Screen Quest Fluo-8 No Wash Calcium Assay (Bz-ATP-induced Ca2+ influx, FLIPR TETRA); format: cell-based; conditions: HEK-293 cells stably transfected with P2X7 receptor, Fluo-8 calcium, Low Divalent Cation Assay Buffer
P2X7 receptor (hP2X7), sequence (Q99572 whole entry): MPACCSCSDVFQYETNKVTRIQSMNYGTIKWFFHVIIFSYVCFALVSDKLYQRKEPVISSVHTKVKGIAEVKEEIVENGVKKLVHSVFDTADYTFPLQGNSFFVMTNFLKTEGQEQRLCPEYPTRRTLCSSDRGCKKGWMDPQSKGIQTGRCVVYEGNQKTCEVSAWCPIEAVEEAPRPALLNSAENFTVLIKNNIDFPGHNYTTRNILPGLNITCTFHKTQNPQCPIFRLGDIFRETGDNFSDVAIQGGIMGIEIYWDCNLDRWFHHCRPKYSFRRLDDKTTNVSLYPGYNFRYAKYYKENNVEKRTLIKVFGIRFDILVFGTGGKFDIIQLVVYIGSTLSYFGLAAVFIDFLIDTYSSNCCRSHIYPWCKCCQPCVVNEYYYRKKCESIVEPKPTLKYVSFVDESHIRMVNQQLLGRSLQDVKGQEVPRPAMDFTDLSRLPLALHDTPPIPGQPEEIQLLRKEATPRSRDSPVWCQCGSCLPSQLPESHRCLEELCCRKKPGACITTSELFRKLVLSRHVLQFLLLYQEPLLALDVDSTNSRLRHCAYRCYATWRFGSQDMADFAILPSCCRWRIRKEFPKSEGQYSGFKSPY
Protocol: Extracellular binding of Bz-ATP to P2X7 receptor opens the channel and allows Ca2+ influx into the cells. This Ca2+ entry was measured in HEK-293 cells stably transfected with P2X7 receptor using Screen Quest™ Fluo-8 No Wash Calcium Assay Kit (AAt Bioquest®, cat. 36316). Once inside the cell, the lipophilic blocking groups of Fluo-8 are cleaved by non-specific cell esterases, resulting in a negatively-charged fluorescent dye that stays inside cells. Its fluorescence increases upon binding to calcium. When HEK-293/P2X7 cells are stimulated with Bz-ATP, Ca2+ enters the cells and the fluorescence of Fluo-8 NW increases. The dye has an absorption spectrum compatible with excitation at 488 nm by argon laser sources and its emission wavelength is in the range of 515-575 nm.
HEK-293 cells stably transfected with P2X7 receptor were seeded overnight in growth medium at 10,000 to 20,000 cells/well in 384-well plate. 24 hours later, the medium was removed and the cells were pre-loaded at RT for 1 hour with 20 μL/w of Fluo-8 NW. Then 10 μL/w of test compounds and reference antagonist A438079 at 3×-concentration were injected with the […] and the kinetic response over a period of five minutes was monitored.

P2X7 receptor, sequence (Q99572 whole entry): as above

| SMILES | IC50 [1] [nM] | IC50 [2] [nM] |
| --- | --- | --- |
| O=C(NCC(c1cnc(C2CCC(F)(F)CC2)s1)N1CCOCC1)c1c(F)cccc1Cl (stereo not drawn) [Compound 116, 2-chloro-N-{2-[2-(4,4-difluorocyclohexyl)-1,3-thiazol-5-yl]-2-(morpholin-4-yl)ethyl}-6-fluorobenzamide] | 41 | 60 |
| Cc1cccc(C)c1C(=O)NCC(c1cncs1)N1CCC(OCc2ccccc2)CC1 (stereo not drawn) [Compound 23, N-{2-[4-(benzyloxy)piperidin-1-yl]-2-(1,3-thiazol-5-yl)ethyl}-2,6-dimethylbenzamide] | 40 | 118 |
| CCCc1ncc(C(CNC(=O)c2cc(-c3ncc(F)cn3)ccc2Cl)N2CCC(F)(F)CC2)s1 (stereo not drawn) [Compound 107, 2-chloro-N-[2-(4,4-difluoropiperidin-1-yl)-2-(2-propyl-1,3-thiazol-5-yl)ethyl]-5-(5-fluoropyrimidin-2-yl)benzamide] | 158 | 631 |
| Cc1ncoc1C(CNC(=O)c1cc(-c2ncc(F)cn2)ccc1Cl)N1CCC(F)(F)CC1 (stereo not drawn) [Compound 51, 2-chloro-N-[2-(4,4-difluoropiperidin-1-yl)-2-(4-methyl-1,3-oxazol-5-yl)ethyl]-5-(5-fluoropyrimidin-2-yl)benzamide] | 71 | 101 |
| CCCc1ncc(C(CNC(=O)c2cccc3ncccc23)N2CCC(F)(F)CC2)s1 (stereo not drawn) [Compound 108, N-[2-(4,4-difluoropiperidin-1-yl)-2-(2-propyl-1,3-thiazol-5-yl)ethyl]quinoline-5-carboxamide] | 77 | 199 |
| Cc1cccc(Cl)c1C(=O)NCC(c1scnc1C)N1CCOC(c2ccc(F)cc2F)C1 (stereo not drawn) [Compound 101, 2-chloro-N-{2-[2-(2,4-difluorophenyl)morpholin-4-yl]-2-(4-methyl-1,3-thiazol-5-yl)ethyl}-6-methylbenzamide] | 42 | 114 |
| COc1cccc(C(=O)NCC(c2ocnc2C)N2CCC(F)(F)CC2)c1OC (stereo not drawn) [Compound 50, N-[2-(4,4-difluoropiperidin-1-yl)-2-(4-methyl-1,3-oxazol-5-yl)ethyl]-2,3-dimethoxybenzamide] | 2090 | 4970 |
| CCc1ncc(C(CNC(=O)c2c(F)cccc2Cl)N2CCC(F)(F)CC2)s1 (stereo not drawn) [Compound 85, 2-chloro-N-[2-(4,4-difluoropiperidin-1-yl)-2-(2-ethyl-1,3-thiazol-5-yl)ethyl]-6-fluorobenzamide] | 48 | 62 |
| Cc1ncsc1C(CNC(=O)c1c(F)cccc1Cl)N1CCOC(c2ccc(F)cc2F)C1 (stereo not drawn) [Compound 91, 2-chloro-N-{2-[2-(2,4-difluorophenyl)morpholin-4-yl]-2-(4-methyl-1,3-thiazol-5-yl)ethyl}-6-fluorobenzamide] | 53 | 72 |
| Cc1cccc(C)c1C(=O)NCC(c1scnc1C)N1CCc2ccccc2C1 (stereo not drawn) [Compound 30, 2,6-dimethyl-N-[2-(4-methyl-1,3-thiazol-5-yl)-2-(1,2,3,4-tetrahydroisoquinolin-2-yl)ethyl]benzamide] | 37 | 46 |
| Cc1ncc(C(CNC(=O)c2cc(-c3ncc(F)cn3)ccc2Cl)N2CCC(F)(F)CC2)s1 (single isomer, unassigned; (-)) [Compound 128, (−)-2-chloro-N-[2-(4,4-difluoro-piperidin-1-yl)-2-(2-methylthiazol-5-yl)ethyl]-5-(5-fluoropyrimidin-2-yl)benzamide] | 24 | 141 |
| Cc1cccc(Cl)c1C(=O)NCC(c1cncs1)N1CCC(F)(F)CC1 (stereo not drawn) [Compound 15, 2-chloro-N-[2-(4,4-difluoropiperidin-1-yl)-2-(1,3-thiazol-5-yl)ethyl]-6-methylbenzamide] | 38 | 8 |
| O=C(NCC(c1cnc(C2CCC2)s1)N1CCC(F)(F)CC1)c1cc(-c2ncc(F)cn2)ccc1Cl (stereo not drawn) [Compound 111] | 326 | 1020 |
| Nc1ccc(Cl)c(C(=O)NCC(c2cncs2)N2CCOCC2)c1 (stereo not drawn) [Compound 12, 5-amino-2-chloro-N-[2-(morpholin-4-yl)-2-(1,3-thiazol-5-yl)ethyl]benzamide-] | 846 | 143 |
| O=C(NCC(c1cnc(C(F)(F)F)s1)N1CCC(F)(F)CC1)c1c(F)cccc1Cl (stereo not drawn) [Compound 81, 2-chloro-N-[2-(4,4-difluoropiperidin-1-yl)-2-[2-(trifluoromethyl)-1,3-thiazol-5-yl]ethyl]-6-fluorobenzamide] | 16 | 38 |
| Nc1ccc(Cl)c(C(=O)NCC(c2cncs2)N2CCc3ccccc3C2)c1 (stereo not drawn) [Compound 17, 5-amino-2-chloro-N-[2-(1,2,3,4-tetrahydroisoquinolin-2-yl)-2-(1,3-thiazol-5-yl)ethyl]benzamide] | 690 | 136 |
| Cc1ncc(C(CNC(=O)c2c(C)cccc2C)N2CCC(F)(F)CC2)s1 (stereo not drawn) [Compound 40, N-[2-(4,4-difluoropiperidin-1-yl)-2-(2-methyl-1,3-thiazol-5-yl)ethyl]-2,6-dimethylbenzamide] | 18 | 30 |
| O=C(NCC(c1cnc(C2CC2)s1)N1CCC(F)(F)CC1)c1cc(-c2ncc(F)cn2)ccc1Cl (stereo not drawn) [Compound 87] | 126 | 179 |
| O=C(NCC(c1cnc(C2CCC2)s1)N1CCC(F)(F)CC1)c1c(F)cccc1Cl (stereo not drawn) [Compound 110, 2-chloro-N-[2-(2-cyclobutyl-1,3-thiazol-5-yl)-2-(4,4-difluoropiperidin-1-yl)ethyl]-6-fluorobenzamide] | 46 | 119 |
| Cc1cccc(C)c1C(=O)NCC(c1scnc1C)N1CCC(F)(F)CC1 (stereo not drawn) [Compound 32, N-[2-(4,4-difluoropiperidin-1-yl)-2-(4-methyl-1,3-thiazol-5-yl)ethyl]-2,6-dimethylbenzamide] | 44 | 55 |
| Cc1ncsc1C(CNC(=O)c1c(F)cccc1Cl)N1CCC(F)(F)CC1 (stereo not drawn) [Compound 31, 2-chloro-N-[2-(4,4-difluoropiperidin-1-yl)-2-(4-methyl-1,3-thiazol-5-yl)ethyl]-6-fluorobenzamide] | 229 | 31 |
| Cc1cccc(C)c1C(=O)NCC(c1cncs1)N1CCc2ccccc2C1 (stereo not drawn) [Compound 18, 2,6-dimethyl-N-[2-(1,2,3,4-tetrahydroisoquinolin-2-yl)-2-(1,3-thiazol-5-yl)ethyl]benzamide] | 190 | 90 |
| Cc1cccc(Cl)c1C(=O)NCC(c1cncs1)N1CCOCC1 (stereo not drawn) [Compound 13, 2-chloro-6-methyl-N-[2-(morpholin-4-yl)-2-(1,3-thiazol-5-yl)ethyl]benzamide] | 271 | 64 |
| O=C(NCC(c1cscn1)N1CCc2ccccc2C1)c1c(F)cccc1Cl (stereo not drawn) [Compound 6, 2-chloro-N-[2-(3,4-dihydro-1H-isoquinolin-2-yl)-2-(1,3-thiazol-4-yl)-ethyl]-6-fluoro-benzamide] | 1260 | 800 |
| CCCc1ncc(C(CNC(=O)c2c(F)cccc2Cl)N2CCC(F)(F)CC2)s1 (stereo not drawn) [Compound 109, 2-chloro-N-[2-(4,4-difluoropiperidin-1-yl)-2-(2-propyl-1,3-thiazol-5-yl)ethyl]-6-fluorobenzamide] | 50 | 78 |
| O=C(NCC(c1cscn1)N1CCC(F)(F)CC1)c1c(F)cccc1Cl (stereo not drawn) [Compound 4, 2-chloro-N-[2-(4,4-difluoropiperidin-1-yl)-2-(1,3-thiazol-4-yl)ethyl]-6-fluorobenzamide] | 3300 | 845 |
| Cc1ncc(C(CNC(=O)c2c(F)cccc2Cl)N2CCC(F)(F)CC2)s1 (stereo not drawn) [Compound 38, 2-chloro-N-[2-(4,4-difluoropiperidin-1-yl)-2-(2-methyl-1,3-thiazol-5-yl)ethyl]-6-fluorobenzamide] | 49 | 87 |
| Cc1ncsc1C(CNC(=O)c1cccc2ncccc12)N1CCC(F)(F)CC1 (stereo not drawn) [Compound 33, N-[2-(4,4-difluoropiperidin-1-yl)-2-(4-methyl-1,3-thiazol-5-yl)ethyl]quinoline-5-carboxamide] | 176 | 158 |
| O=C(NCC(c1cnco1)N1CCC(F)(F)CC1)c1c(F)cccc1Cl (stereo not drawn) [Compound 45, 2-chloro-N-[2-(4,4-difluoropiperidin-1-yl)-2-(1,3-oxazol-5-yl)ethyl]-6-fluorobenzamide] | 225 |  |
